From patent US5534498A, “Trypsin inhibitors” (Corvas International, Inc., priority 1993, dated 1996)

Legend:
[1] = target: T1, Factor VIIa:rTF complex (Homo sapiens, UniProt P08709); assay: Factor VIIa assay (S-2288 substrate); assay type: biochemical; settings: 30 min preincubation, room temperature; tested 0.025-25 μM; Inact. = no inhibition at highest concentration
T1 construct: 2.5 ml 400 nMhuman Factor VIIa
Protocol: (§1) The specificity of the peptide aldehydes (8 through 12) was determined in vitro by measurement of their IC50 against other enzymes involved in hemostasis. A specific concentration of enzyme and its substrate were challenged with varying concentrations of inhibitor. IC50 is that concentration of inhibitor giving 50% inhibition of substrate turnover, under the assay conditions. Specific assay procedures used are presented below.
(§2) 96-well microtiter plates were prepared for use in these assays by incubating each well with 300 μL 1% bovine serum albumin (in deionized water) for 30 minutes at 37° C., then washing three times with deionized water.
Enzyme activity was determined using as substrate, S-2288 [D-isoleucyl-L-prolyl-L-arginine-p-nitroanilide dihydrochloride], purchased from Kabi Diagnostica. The substrate was made up in deionized water prior to use.
Both solutions were then incubated for 30 minutes at room temperature before use in the assay.
The assay was run by combining in appropriate wells 50 μL inhibitor in TBS or TBS alone and 100 μL of Factor VIIa:rTF complex or background control, incubating this mixture for 30 minutes at room temperature, adding 50 μL of 2 mM S-2288, incubating for an additional 30 to 60 minutes at room temperature, then reading the absorbance of the wells at 405 nm on a microtiter plate reader set with background substraction at 650 nm.

[2] = target: plasmin (Homo sapiens, UniProt P00747); assay: Plasmin assay (S-2251 substrate); assay type: biochemical; set-up: 50 μL 25 nM human plasmin; settings: 30 min preincubation, room temperature; tested 0.025-25 μM; Inact. = no inhibition at highest concentration
plasmin, sequence (P00747 581-810 limits assumed): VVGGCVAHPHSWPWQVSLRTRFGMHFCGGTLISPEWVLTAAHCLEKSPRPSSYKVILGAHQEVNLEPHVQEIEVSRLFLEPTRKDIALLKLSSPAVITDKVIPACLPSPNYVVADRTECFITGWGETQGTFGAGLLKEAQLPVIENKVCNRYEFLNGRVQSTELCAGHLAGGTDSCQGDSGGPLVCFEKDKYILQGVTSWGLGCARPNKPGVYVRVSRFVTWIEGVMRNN
plasmin, sequence (P00747 97-580 partner limits assumed): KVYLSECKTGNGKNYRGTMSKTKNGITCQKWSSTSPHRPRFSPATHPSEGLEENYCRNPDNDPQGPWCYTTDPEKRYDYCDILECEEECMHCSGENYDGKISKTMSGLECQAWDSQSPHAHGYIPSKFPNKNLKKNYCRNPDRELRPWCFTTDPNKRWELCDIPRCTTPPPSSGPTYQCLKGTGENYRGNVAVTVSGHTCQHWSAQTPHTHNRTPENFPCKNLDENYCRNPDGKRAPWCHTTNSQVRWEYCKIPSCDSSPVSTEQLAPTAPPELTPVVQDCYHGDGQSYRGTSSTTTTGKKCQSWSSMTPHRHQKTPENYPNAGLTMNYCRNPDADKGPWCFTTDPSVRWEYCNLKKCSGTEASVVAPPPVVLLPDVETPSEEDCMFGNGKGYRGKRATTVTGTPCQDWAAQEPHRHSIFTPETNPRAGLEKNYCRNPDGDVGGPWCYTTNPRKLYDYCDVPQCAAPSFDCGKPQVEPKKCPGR
Protocol: as §1, with “IC50 is that concentration of inhibitor giving 50% inhibition of substrate turnover, under the assay conditions.” left out
as §2
(§3) The substrate was made up in deionized water prior to use.

[3] = test system: acute pancreatitis induced in animal models; settings: literature reports; cited from earlier work
[4] = target: T2, Activated human Protein C (Homo sapiens, UniProt P04070); assay: Protein C assay (Pefachrome PC substrate); assay type: biochemical; settings: 30 min preincubation, room temperature; tested 0.025-25 μM; Inact. = no inhibition at highest concentration
T2 construct: from tissue
T2 sequence (P04070 212-461 limits assumed): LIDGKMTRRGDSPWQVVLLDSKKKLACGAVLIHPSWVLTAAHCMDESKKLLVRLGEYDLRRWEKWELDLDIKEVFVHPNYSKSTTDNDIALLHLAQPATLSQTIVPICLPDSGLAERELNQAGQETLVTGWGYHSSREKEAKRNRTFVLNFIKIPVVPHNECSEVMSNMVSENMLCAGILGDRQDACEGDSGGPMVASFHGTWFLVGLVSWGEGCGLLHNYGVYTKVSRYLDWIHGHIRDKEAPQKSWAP
T2 sequence (P04070 43-197 partner limits assumed): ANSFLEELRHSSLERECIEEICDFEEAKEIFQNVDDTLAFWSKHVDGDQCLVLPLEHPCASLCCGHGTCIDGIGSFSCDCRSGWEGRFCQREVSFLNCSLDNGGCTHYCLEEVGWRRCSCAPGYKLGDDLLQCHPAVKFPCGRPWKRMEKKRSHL
Protocol: as §1, with “IC50 is that concentration of inhibitor giving 50% inhibition of substrate turnover, under the assay conditions.” left out
as §2
Enzyme activity was determined using as substrate, Pefachrome PC [δ-carbobenzoloxy-D-lysyl-L-prolyl-L-arginine-p-nitroanilide], purchased from Centerchem, Inc. The substrate was made up in deionized water prior to use. Protac used to activate Protein C was obtained from American Diagnostics.

[5] = target: recombinant tissue plasminogen activator (Homo sapiens, UniProt P00750); assay: Tissue plasminogen activator assay (S-2288 substrate); assay type: biochemical; settings: 30 min preincubation, room temperature; tested 0.025-25 μM; Inact. = no inhibition at highest concentration
recombinant tissue plasminogen activator, sequence (P00750 36-562): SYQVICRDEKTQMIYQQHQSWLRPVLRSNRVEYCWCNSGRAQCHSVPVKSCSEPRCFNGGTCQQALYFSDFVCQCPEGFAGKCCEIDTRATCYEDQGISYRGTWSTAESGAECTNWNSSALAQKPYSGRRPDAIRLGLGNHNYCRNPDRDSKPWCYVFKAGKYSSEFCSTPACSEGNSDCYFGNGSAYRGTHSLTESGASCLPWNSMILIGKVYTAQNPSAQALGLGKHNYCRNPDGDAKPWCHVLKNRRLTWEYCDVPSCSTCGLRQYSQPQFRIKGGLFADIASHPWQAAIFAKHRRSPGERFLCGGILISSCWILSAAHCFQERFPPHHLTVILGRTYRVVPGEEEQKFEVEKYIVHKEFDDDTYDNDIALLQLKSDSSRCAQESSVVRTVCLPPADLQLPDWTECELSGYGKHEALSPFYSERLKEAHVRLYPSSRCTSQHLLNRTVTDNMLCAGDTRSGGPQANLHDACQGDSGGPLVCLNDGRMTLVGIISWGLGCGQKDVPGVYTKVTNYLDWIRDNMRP
Protocol: as §1, with “IC50 is that concentration of inhibitor giving 50% inhibition of substrate turnover, under the assay conditions.” left out
as §2, §3

[6] = target: T3, bovine thrombin (Bos taurus, UniProt P00735); assay: Thrombin assay (S-2238 substrate); assay type: biochemical; settings: 30 min preincubation, room temperature; tested 0.025-25 μM; Inact. = no inhibition at highest concentration
T3 construct: 50 μL 20 nM bovine thrombin
Protocol: as §1, §2
Enzyme activity was determined using as substrate, S-2238 [D-phenylalanyl-L-pipecolyl-L-arginine-p-nitroanilide dihydrochloride], purchased from Kabi Diagnostica. The substrate was made up in deionized water prior to use.
The assay was run by combining in appropriate wells 50 μL TBS and 50 μL inhibitor in TBS or TBS alone and 50 μL 20 nM bovine thrombin (or TBS as background control), incubating this mixture for 30 minutes at room temperature, adding 50 μL 1 mM S-2238, incubating for an additional 30 minutes at room temperature, then reading the absorbance of the wells at 405 nm on a microtiter plate reader set with background substraction at 650 nm.

[7] = target: T4, bovine trypsin (Bos taurus, UniProt P00760); assay: Trypsin assay, IC50 (S-2222 substrate); assay type: biochemical; settings: 30 min preincubation, room temperature; tested 0.025-25 μM
T4 sequence (P00760 24-246): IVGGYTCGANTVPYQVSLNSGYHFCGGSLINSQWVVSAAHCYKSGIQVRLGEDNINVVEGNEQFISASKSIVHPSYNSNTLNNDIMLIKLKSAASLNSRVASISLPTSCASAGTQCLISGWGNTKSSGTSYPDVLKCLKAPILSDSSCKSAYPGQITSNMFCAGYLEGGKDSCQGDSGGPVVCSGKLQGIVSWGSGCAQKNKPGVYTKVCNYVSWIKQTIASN
Protocol: as §1, with “IC50 is that concentration of inhibitor giving 50% inhibition of substrate turnover, under the assay conditions.” left out
as §2, §3

[8] = target: T5, human Factor Xa (Homo sapiens, UniProt P00742); assay: Factor Xa assay (Pefachrome Xa substrate); assay type: biochemical; settings: 30 min preincubation, room temperature; tested 0.025-25 μM; Inact. = no inhibition at highest concentration
T5 construct: 50 μL 30 nM human Factor Xa
T5 sequence (P00742 235-488 limits assumed): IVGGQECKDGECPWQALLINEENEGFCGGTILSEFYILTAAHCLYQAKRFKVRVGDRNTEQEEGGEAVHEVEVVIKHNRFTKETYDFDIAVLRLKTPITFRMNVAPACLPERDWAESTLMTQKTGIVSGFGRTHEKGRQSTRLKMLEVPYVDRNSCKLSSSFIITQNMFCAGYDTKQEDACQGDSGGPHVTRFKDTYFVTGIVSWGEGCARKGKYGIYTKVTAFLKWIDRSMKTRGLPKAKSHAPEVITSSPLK
T5 sequence (P00742 41-179 partner limits assumed): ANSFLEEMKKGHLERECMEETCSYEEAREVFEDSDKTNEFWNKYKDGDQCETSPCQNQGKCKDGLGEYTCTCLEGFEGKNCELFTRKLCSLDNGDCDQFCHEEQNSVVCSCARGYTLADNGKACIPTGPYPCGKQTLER
Protocol: as §1, with “IC50 is that concentration of inhibitor giving 50% inhibition of substrate turnover, under the assay conditions.” left out
as §2
Enzyme activity was determined using as substrate, Pefachrome Xa [N-methoxycarbonyl-D-cyclohexylalanyl-L-glycyl-L-arginine p-niroanilide acetate], purchased from Centerchem, Inc. The substrate was made up in deionized water prior to use.

[9] = test system: trypsin; settings: literature (Saino et al.); cited from earlier work
[10] = target: kallikrein; settings: literature; cited from earlier work
[11] = test system: human acute pancreatitis; settings: literature reports; cited from earlier work
[12] = target: trypsin; settings: literature (Jones); read-out: dissociation constant (Kd) trypsin; cited from earlier work

T1 sequence (P08709 213-466 limits assumed): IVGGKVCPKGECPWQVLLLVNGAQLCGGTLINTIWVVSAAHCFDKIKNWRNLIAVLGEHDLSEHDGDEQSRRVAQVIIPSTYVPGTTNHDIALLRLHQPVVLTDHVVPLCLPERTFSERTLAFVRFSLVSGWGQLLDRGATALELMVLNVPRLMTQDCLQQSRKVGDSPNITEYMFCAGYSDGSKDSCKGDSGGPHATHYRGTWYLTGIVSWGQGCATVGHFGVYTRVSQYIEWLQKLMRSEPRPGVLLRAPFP
T1 sequence (P08709 61-212 partner limits assumed): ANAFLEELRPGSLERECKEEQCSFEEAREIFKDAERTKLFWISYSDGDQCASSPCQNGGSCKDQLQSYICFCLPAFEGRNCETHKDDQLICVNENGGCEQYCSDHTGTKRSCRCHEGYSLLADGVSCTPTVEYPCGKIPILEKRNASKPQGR
T1 sequence (P13726 33-295 partner): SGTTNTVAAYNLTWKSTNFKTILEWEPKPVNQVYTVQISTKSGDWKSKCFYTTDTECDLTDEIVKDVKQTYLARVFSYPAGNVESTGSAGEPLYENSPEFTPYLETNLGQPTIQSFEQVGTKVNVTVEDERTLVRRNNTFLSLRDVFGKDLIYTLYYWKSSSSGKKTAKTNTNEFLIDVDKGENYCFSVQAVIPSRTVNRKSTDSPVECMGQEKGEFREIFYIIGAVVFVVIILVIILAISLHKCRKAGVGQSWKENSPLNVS

Row | Compound | IC50 [1] | IC50 [2] | efficacy in the treatment of acute pancreatitis induced in animal models [3] | IC50 [4] | IC50 [5] | IC50 [6] | IC50 [7] | IC50 [8] | IC50 against trypsin, times lower than that for N-acetyl-L-leucyl-L-leucy-L-argininal [9] | Kd [10] | efficacy in the treatment of human acute pancreatitis [11] | Kd [12] | IC50 tPA [5] | IC50 Thrombin [6] | IC50 Xa [8]
1 | CCOC(=O)c1ccc(OC(=O)CCCCCN=C(N)N)cc1.CS(=O)(=O)O [FOY, gabexate mesilate, reference compound] | > 25 µM | 1.6 µM | effective to varying degrees | 15 µM | 9 µM | 6 µM | 0.25 µM | 8 µM |  |  |  |  |  |  | 
2 | CC(C)C[C@H](NC(=O)[C@@H]1CCC(=O)N1C(=O)OCc1ccccc1)C(=O)N[C@H](C=O)CCCNC(=N)N [N-benzyloxycarbonyl-L-pyroglutamyl-L-leucyl-L-argininal] |  |  |  |  |  |  |  |  | about 7 times |  |  |  |  |  | 
3 | Aprotinin [reference compound] | > 25 µM |  |  | 2 µM |  |  |  |  |  | 0.1 µM | ineffective | 0.03 nM | Inact. | Inact. | Inact.
